These results are taken from EP3884941A1, “INFLAMMASOME INHIBITORS AND USE THEREOF” (CENTRO DE INVESTIGACION PRINCIPE FELIPE, priority 2020, dated 2021).

Entries after “also recorded” stand apart in the source; their conditions may differ. Like-named read-outs stand apart in the source and are kept apart here.

By IC50 is commonly meant the concentration that inhibits the measured activity by half.

Experiment [1] addresses T1, ASC-mediated PC1 activation (Homo sapiens, UniProt P29466).
T1 construct: His; made in house; host or cells: PC1: Sf9 insect cells (baculovirus)
T1 sequence (P29466 1-404): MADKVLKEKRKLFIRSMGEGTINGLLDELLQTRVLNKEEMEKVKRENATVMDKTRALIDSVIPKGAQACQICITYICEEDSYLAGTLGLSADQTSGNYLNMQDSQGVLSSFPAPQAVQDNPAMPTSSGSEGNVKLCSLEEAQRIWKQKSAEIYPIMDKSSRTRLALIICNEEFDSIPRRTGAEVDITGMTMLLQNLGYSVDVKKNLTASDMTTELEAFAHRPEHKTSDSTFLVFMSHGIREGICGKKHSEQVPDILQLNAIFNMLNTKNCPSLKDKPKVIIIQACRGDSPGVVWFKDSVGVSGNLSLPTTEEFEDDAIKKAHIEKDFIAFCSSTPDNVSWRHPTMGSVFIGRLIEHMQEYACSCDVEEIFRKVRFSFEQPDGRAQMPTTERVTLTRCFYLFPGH
The experiment is described as follows: ASC-mediated PC1 reconstitution in vitro assay (primary screening). In kind it is biochemical. On the procedure:
Recombinant PC1 (50 nM) was preincubated with the indicated concentrations of compounds for 20 min at RT in Assay Buffer (20 mM HEPES pH 7.5, 10 mM KCI, 1.5 mM MgCl2, 1mM EDTA, 1 mM EGTA, 1 mM DTT). Then 300 nM of ASC were added and incubated for another 10 min period. Caspase-1 activation was measured using fluorogenic substrate Ac-WEHD-AFC (80 µM; Enzo Life Sciences) by continuously monitoring the release of the AFC (7-Amino-4-trifluoromethylcoumarin) product in a Wallac Victor workstation. The compounds were initially tested at 20 µM with 1% of DMSO. Data are reported as the percentage of inhibition compared with the absence of the compound.
The materials and methods employed in these experiments are now described.

The subject of experiment [2] is NLRP3 inflammasome. Put plainly: human PBMCs cellular assay, LPS plus ATP. The experiment is classed as cell-based. To be noted: IL-1β and LDH release; MM01 1, 5 or 10 µM (Figure 5E, 5F). On the procedure:
Human peripheral blood mononuclear cells (PBMCs) are lymphocytes and monocytes. PBMCs were separated from the whole blood by a density gradient centrifugation method using Ficoll Histopaque. Purified PBMCs were plated in 24-well plates at 5000000 cells/well in free-serum RPMI medium. Cells were primed for 3 h with 10 ng/ml pure LPS followed by 4 h with compounds and 5 mM ATP. Supernatants were harvested and clarified by centrifugation at 1500 rpm at RT and cytokine and caspase-1 activation analysis was performed as previously described.
(In general: LDH leaks from cells whose membrane has failed.)

The test system of experiment [3] is NLRP3 inflammasome. The experiment is described as follows: inflammasome activation cellular assay, LPS plus nigericin, PMA-differentiated THP-1 cells. To be noted: MM01 10 µM. In kind it is cell-based, human. On the procedure:
(§1) The MM01 compound was evaluated in the THP-1, or PMA-differentiated THP-1 cells (50 nM PMA for 24h) stimulated with lipopolysaccharide (LPS) plus adenosine triphosphate (ATP) to stimulate ASC-dependent inflammasomes NLRP3. Briefly, 1x10^6 cells were seeded in 6-well plates in 1 mL RPMI media that contained 1% FBS. Cells were either mock-treated or primed with compounds at the indicated concentrations for 30 min, followed by treatment with 100 ng/mL LPS (Sigma) and 2.5 mM ATP (Sigma) for 6 h at 37°C. In the case of nigericin stimulation, cells were primed with LPS for 3h, and then 10 µM nigericin (Sigma) was added for 30 min. Supernatants were harvested and clarified by centrifugation at 1500 rpm at RT, and a cytokine analysis was performed. Both IL-1β secretion and the release of IL-18were monitored by an ELISA assay (BD OptEIA™ Human IL-1β ELISA Kit and Human IL-18 Module Set eBioscience) following the manufacturer's instructions. Cell viability was analyzed in parallel by evaluating the release of lactate dehydrogenase (LDH) according to a commercial kit (CytoTox-ONE™ Homogeneous Membrane Integrity Assay; Promega). The release of LDH was calculated using the formula: the release of LDH (%) = 100x (Abs490 treated -Abs490 untreated cells)/ Abs490 untreated cells lysed with Triton 9% (maximum release of LDH).
The supernatants of the treated cells were precipitated by the chloroform-methanol method. Pellets were obtained by lysing cells in 25 mM of Tris-HCI pH 7.4, 1 mM EDTA, 1 mM EGTA and 1% SDS, plus protease and phosphatase inhibitors. The protein concentration was determined by the BCA protein assay. Samples were separated in a 14% SDS-PAGE gel, transferred to a nitrocellulose membrane and blocked with 5% skimmed milk for 1 h. Then the membrane was incubated overnight with primary antibodies: α-casp1 (1:1000; Cell Signaling 2225), α-IL-1β (1:1000; Acris R1130P), α-NLRP3 (1:1000; Cell Signaling 15101), α-tubulin (1:3000; Abcam ab6160) at 4°C. […]

The test system of experiment [4] is NLRP3 inflammasome. Put plainly: inflammasome activation cellular assay, LPS plus ATP, THP-1 cells. The experiment is classed as cell-based, human. On the procedure: as §1
The supernatants of the treated cells were precipitated by the chloroform-methanol method. Pellets were obtained by lysing cells in 25 mM of Tris-HCI pH 7.4, 1 mM EDTA, 1 mM EGTA and 1% SDS, plus protease and phosphatase inhibitors. The protein concentration was determined by the BCA protein assay. Samples were separated in a 14% SDS-PAGE gel, transferred to a nitrocellulose membrane and blocked with 5% skimmed milk for 1 h. Then the membrane was incubated overnight with primary antibodies: α-casp1 (1:1000; Cell Signaling 2225), α-IL-1β (1:1000; Acris R1130P), α-NLRP3 (1:1000; Cell Signaling 15101), α-tubulin (1:3000; Abcam ab6160) at 4°C. Membranes were washed and probed with the appropriate secondary antibody conjugated with peroxidase for enhanced chemiluminescence detection (Amersham Pharmacia Biotech).

Where [5] appears, read: PMA-differentiated THP-1, LPS 100 ng/ml + nigericin 10 µM.
Where [6] appears, read: THP-1, LPS 100 ng/ml + ATP 2.5 mM, MM01 1, 2.5 or 5 µM, ELISA.

Consider `C=CCN1C(=O)/C(=C2/C(=O)Nc3ccccc32)SC1=S` [MM01], for which the IC50 in experiment [1] (PC1 50 nM, ASC 300 nM, substrate Ac-WEHD-AFC, read-out: IC50) was 500 ± 100 nM; in experiment [1] (dose-response curve 0.04 to 40 µM (Figure 1B), stated in words), “in the nanomolar range”. In experiment [1] (immunoblotting of PC1 processing (Figure 1C)), the “formation of p20 subunit” value is reported as “decrease”. Moreover, the “LPS/ATP stimulation of isolated human PBMCs” value in the experiment with NLRP3 inflammasome [2] is given as “inhibits”. Further, the IL-1β secretion result is “decreased” with NLRP3 inflammasome [3] (setting [5]) and “decrease” in the experiment on NLRP3 inflammasome [4] (setting [6]). Besides, the IL-18 secretion entry in the experiment on NLRP3 inflammasome [3] (setting [5]) is recorded as “decreased”; in the experiment on NLRP3 inflammasome [4] (setting [6]) it was “decrease”. In the experiment with NLRP3 inflammasome [3] (PMA-differentiated THP-1, LPS + nigericin, LDH release), the pyroptotic cell death entry is given as “decreased”. Further, the “caspase-1 and IL-1β processing” value in the experiment with NLRP3 inflammasome [4] (THP-1, LPS + ATP, immunoblotting (Figure 3C)) was “decrease”. Further, the LDH release entry with NLRP3 inflammasome [4] (THP-1, LPS + ATP, pyroptosis / cell viability, MM01 1, 2.5 or 5 µM, VX-765 5 µM) is recorded as “significantly reduce; also recorded: significantively decreased”.
